Data: patent US11458146B2, “Compositions and methods for the treatment of myelin related and inflammation related diseases or disorders” (Duke University, priority 2017, dated 2022)
Entries after “also recorded” stand apart in the source; their conditions may differ.

Assays:
naïve CD4+ T cells = test: TH17 polarization of naïve CD4+ T cells in vitro (flow cytometry, IL-17 production); type: cell-based, rodent; conditions: for cells polarized into the TH17 population: control cells 7.8%; for TH17 polarization (in words, FIG. 8): flow cytometry
Protocol: Naïve CD4 T cells were isolated from rodent spleen tissue using CD4 magnetic beads. CD4+ lymphocytes were cultured on plates coated with anti-CD3 antibody and anti-CD28 antibodies in the presence of rTGFb, rIL-6, and rIL-23 for 5 days. Four hours prior to flow cytometry analysis, the cells were stimulated with PMA, ionomycin, and Brefeldin A. The cells were then analyzed for IL-17 production (FIG. 8, wherein CD4+ T cell culture in the presence of CD3/CD28-coated beads with IMDM media containing rTGFβ (4 ng/ml), rIL-6 (20 ng/ml), rIL-23 (50 ng/ml), anti-IL-4 Ab, and anti-IFNg Ab with or without GW or HC for 5 days. PMA (50 ng/ml), Ionomycin (500 ng/ml) for […], and Brefeldin A (10 μg/ml) for last 3 h)). 7.8% of the control cells polarized into the TH17 population. The LXR agonist GW3965 prevented TH17 polarization (2.6%).

[1] = test system: Primary neural stem cells; test: in vitro screening method for oligodendrogenesis (CNPase+ cell count); type: cell-based, mice; conditions: exposed five days, differentiated 15-18 days; compared to media control
Description: Primary neural stem cells generated from mice were screened for oligodendrogenic potential after treatment with 20HC, 22HC, 24HC, 25HC, and 27HC. Neural stem cells in 8-well chamber slides were exposed to the indicated oxysterol for five days, and then allowed to differentiate for 15-18 days. Following differentiation, cells were fixed and stained for oligodendrocyte markers CNPase and myelin basic protein (MBP) (FIG. 6A). Stained cells were randomly sampled with a 40× objective, using Stereo Investigator software to eliminate bias, while quantifying the number of oligodendrocytes. Each condition was sampled at 10-12 computer selected sites. Images were used to count the number of nucleated CNPase+ cells per high power field (HPF).

[2] = test system: Primary neural stem cells; test: oligodendrocyte differentiation from neural stem cells, western blot for CNPase and MBP; type: cell-based; conditions: 1 μm and 0.5 μm for five days, then differentiation for 18 days
Protocol: FIG. 5 is a western blot analysis. Stem cells were treated with oxysterols at doses indicated for 5 days then allowed to differentiate for 18 days. Protein lysates were probed for oligodendrocyte-associated proteins CNPase and myelin basic protein (MBP). Primary neural stem cells were treated with 24-hydroxycholesterol and 25-hydroxycholesterol at 1 μm and 0.5 μm for five days, then allowed to differentiate for 18 days. Protein lysates were probed for oligodendrocyte-associated proteins CNPase and myelin basic protein (MBP).

[3] = test system: perinatal white matter injury in neonatal mice; test: mouse model of perinatal white matter injury (simulated bowel perforation and sepsis); type: in vivo
Protocol: Perinatal bowel perforation is a common complication of premature birth and is strongly linked to myelin injury and cerebral palsy. A mouse model of perinatal white matter injury was developed. The model simulates a perinatal bowel perforation and sepsis by injection of donor cecal contents into the peritoneal cavity of neonatal mice on postnatal day 5. Using this model, the efficacy of 25-hydroxycholesterol in reversing white matter injury was tested. […] Breast-milk associated 25-HC reversed diffuse white matter injury. The cells were stained with oligodendrocyte marker CC1. 40× high power fields (PHF) were imaged.

smoothened (SMO) = smoothened (SMO) (Homo sapiens, UniProt Q99835); conditions: fibroblast cell culture systems; recent studies; cited from earlier work
NF-κB = NF-κB activation in LPS-treated primary splenic monocytes (western blot); type: cell-based, mice; conditions: 1 μm 20HC for 24 hours, then 500 ng/mL LPS
Protocol: FIG. 7 is a Western blot showing the 20HC inhibition of NFκB pathway in primary splenic monocytes. Primary monocytes were exposed to media, 20HC (24 hour)+LPS (500 ng/ml), or LPS alone for 4 hours. 20HC prevented IκB degradation and p65 phosphorylation in LPS treated cells.
Splenocytes where harvested from postnatal day 12 mice. Monocytes were negatively selected using anti-CD3, CD19 magnetic beads. Cells were treated with vehicle control (DMSO) or 1 μm 20HC for 24 hours. After exposure to 20HC, monocytes were treated with 500 ng/mL of lipopolysaccharide (LPS) to activate the TLR4 receptor and activate NF-κB. Compared to control cells, LPS-treated cells degraded I-κB and phosphorylated p65 consistent with NF-κB activation (FIG. 7). I-κB degradation and phosphorylation of p65 was blocked in 20HC-treated monocytes.

[4] = test system: EAE induced with MOG35-55 peptide in C57BL/6J mice; test: experimental allergic encephalitis (EAE) mouse model; type: in vivo
Protocol: EAE was induced using myelin oligodendrocyte glycoprotein (MOG35-55) peptide using standard approaches (see, e.g., Bittner et al., J. Vis. Exp., 86: 51275 (2014); and Miller et al., Curr Protoc Immunol., Unit-15.1 (2007)) in 15 wild-type 8 week old C57BL/6J mice. TH17 T cell populations are pathogenic in the EAE model and have been implicated in multiple sclerosis (MS). Seven mice (3 male, 4 female) proceeded without further intervention while 8 mice (3 female and 5 male) were given daily 125 μL subcutaneous injections of 20HC resuspended in corn oil (10 mg/mL) two days prior to EAE induction and through day 14, just prior to peak clinical severity. Mice were scored daily for the development of ascending paralysis that is indicative of the development of EAE. In vivo treatment of mice with 20HC (50 mg/kg/day) disrupted the development of MS-like symptoms in the EAE model, as shown in FIGS. 9A and 9B.

smoothened (SMO), sequence (Q99835 28-787): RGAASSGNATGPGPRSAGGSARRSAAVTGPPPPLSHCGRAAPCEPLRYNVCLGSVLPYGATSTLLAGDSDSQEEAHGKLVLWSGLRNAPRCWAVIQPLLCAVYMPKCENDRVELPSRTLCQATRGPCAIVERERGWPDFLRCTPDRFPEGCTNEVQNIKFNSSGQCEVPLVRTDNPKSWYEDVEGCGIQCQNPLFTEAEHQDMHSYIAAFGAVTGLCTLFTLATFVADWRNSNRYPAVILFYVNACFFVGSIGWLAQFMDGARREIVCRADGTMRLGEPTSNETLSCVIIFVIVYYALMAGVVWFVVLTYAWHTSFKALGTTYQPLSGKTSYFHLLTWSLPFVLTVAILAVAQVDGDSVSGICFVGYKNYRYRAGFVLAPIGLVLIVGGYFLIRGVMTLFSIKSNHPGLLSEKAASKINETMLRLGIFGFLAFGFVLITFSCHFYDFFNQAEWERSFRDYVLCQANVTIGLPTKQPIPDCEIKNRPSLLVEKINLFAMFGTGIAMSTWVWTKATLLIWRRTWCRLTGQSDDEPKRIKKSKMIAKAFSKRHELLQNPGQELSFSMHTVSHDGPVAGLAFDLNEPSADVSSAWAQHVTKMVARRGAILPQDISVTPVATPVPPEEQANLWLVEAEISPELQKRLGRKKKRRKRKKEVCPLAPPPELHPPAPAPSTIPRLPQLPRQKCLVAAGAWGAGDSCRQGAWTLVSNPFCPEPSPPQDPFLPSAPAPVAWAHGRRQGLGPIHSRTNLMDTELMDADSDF

Which “cells polarized into the TH17 population” value (naïve CD4+ T cells; 5 days culture) does the source give for `O=C(O)Cc1cccc(OCCCN(Cc2cccc(C(F)(F)F)c2Cl)CC(c2ccccc2)c2ccccc2)c1` [GW3965, reference compound] here?
Its value is 2.6%.

Which “cells polarized into the TH17 population” value (naïve CD4+ T cells; higher doses) does the source give for `C[C@H](CCCC(C)(C)O)[C@H]1CC[C@H]2[C@@H]3CC=C4C[C@@H](O)CC[C@]4(C)[C@H]3CC[C@]12C` [25HC, 25-hydroxycholesterol] here?
The value was 2.7%.

And the “cells polarized into the TH17 population” value (naïve CD4+ T cells; low doses)?
The value was 23.6%.

And the “TH17 polarization (in words, FIG. 8)” value (naïve CD4+ T cells; low doses)?
Its value is “promote”.

What about the “number of oligodendrocytes (nucleated CNPase+ cells per high power field)” value [1] of the same compound?
Its value is “increased number”.

And the “expression of oligodendrocyte-associated proteins CNPase and MBP” value [2]?
The value was “induced expression”.

What about the “myelin integrity (fluoromyelin staining)” value ([3]; 100 mg/kg/day for five days, compared to septic injured mice that received vehicle control) of the same compound?
The value was “improved myelin integrity”.

And the “diffuse white matter injury” value ([3]; septic injured neonatal mice)?
Its value is “reversed”.

And the “numbers of mature oligodendrocytes (CC1+Olig2+)” value ([3]; stereology, compared to septic injured mice, p<0.0001)?
The value was “significantly higher”.

Which “number of oligodendrocytes (nucleated CNPase+ cells per high power field)” value [1] does the source give for `C[C@@H](CO)CCC[C@@H](C)[C@H]1CC[C@H]2[C@@H]3CC=C4C[C@@H](O)CC[C@]4(C)[C@H]3CC[C@]12C` [27HC, 27-hydroxycholesterol] here?
The value was “did not increase”.

With `CC(C)CCC(O)[C@@H](C)[C@H]1CC[C@H]2[C@@H]3CC=C4C[C@@H](O)CC[C@]4(C)[C@H]3CC[C@]12C` (stereo partly drawn) [22HC, 22-hydroxycholesterol] as the compound, how does the “number of oligodendrocytes (nucleated CNPase+ cells per high power field)” value [1] read?
The value was “increased number”.

With `CC(C)C(O)CC[C@@H](C)[C@H]1CC[C@H]2[C@@H]3CC=C4C[C@@H](O)CC[C@]4(C)[C@H]3CC[C@]12C` (stereo partly drawn) [24HC, 24-hydroxycholesterol] as the compound, how does the “cells polarized into the TH17 population” value (naïve CD4+ T cells; 5 days culture) read?
Its value is 2.1%.

What about the “TH17 polarization (in words, FIG. 8)” value (naïve CD4+ T cells) of the same compound?
Its value is “decrease”.

And the “number of oligodendrocytes (nucleated CNPase+ cells per high power field)” value [1]?
The value was “increased number”.

What about the “expression of oligodendrocyte-associated proteins CNPase and MBP” value [2] of the same compound?
The value was “induced expression”.

Which results are given for `CC(C)CCC[C@](C)(O)[C@H]1CC[C@H]2[C@@H]3CC=C4C[C@@H](O)CC[C@]4(C)[C@H]3CC[C@@]21C` [20HC, 20α-Hydroxycholesterol]?
activation of the SHH pathway via direct binding to smoothened (SMO) (smoothened (SMO)): activate; I-κB degradation (NF-κB): blocked; also recorded: prevented; phosphorylation of p65 (NF-κB): blocked; also recorded: prevented; cells polarized into the TH17 population (naïve CD4+ T cells; 5 days culture): 2.2%; TH17 polarization (in words, FIG. 8) (naïve CD4+ T cells): decrease; number of oligodendrocytes (nucleated CNPase+ cells per high power field) [1]: increased number; development of MS-like symptoms ([4]; 50 mg/kg/day subcutaneous, from two days prior to EAE induction through day 14): disrupted; EAE clinical score ([4]; compared to control mice over 46 days, p≤0.05): attenuation

With `CC(C)CC[C@@H](O)[C@@H](C)[C@H]1CC[C@H]2[C@@H]3CC=C4C[C@@H](O)CC[C@]4(C)[C@H]3CC[C@]12C` [22α-hydroxycholesterol] as the compound, how does the “activation of the SHH pathway via direct binding to smoothened (SMO)” value (smoothened (SMO)) read?
The value was “activate”.
